According to patent publication US20220054494A1, “METHODS FOR TREATING BLADDER AND URETHRA DYSFUNCTION AND DISEASE” (University of Pittsburgh - Of the Commonwealth System of …, priority 2019, published 2022):
Entries after “also recorded” stand apart in the source; their conditions may differ.

Assays:
bladder vasculature = experiment: Ribbon-scanning confocal microscopy of bladder vasculature perfused with fluorescent beads; format: in vivo, rat; details: aged rats
Source text: Bladders that had been perfused transcardially with PBS and containing 20 nm yellow-green fluorescent beads (THERMO FISHER™, F8787) to highlight the vasculature were fixed then cleared rapidly by removing lipids and dissolving light-absorbing chromophores within the tissue. Clearing the tissue increased the maximum depth of confocal imaging to many millimeters. At this stage, tissue was directly imaged for the presence of genetically expressed reporter proteins or underwent staining using immunohistochemistry (IHC) or molecular dyes. Using this method, images were acquired through bladders (and other tissues) that are 5000 micrometers thick. Volumetric data are acquired using the Caliber ID RS-G4 ribbon scanning confocal microscope, which acquired large-area images 20-40 times faster than other commercially available systems with a high nA (1.0) long working distance (8 mm) low magnification (20×) by NIKON™ Inc (Tokyo, Japan). Quantitative changes in vascular structures were compared with the volume and surface area of each bladder and of the various tissue subtypes using these methods (UT; suburothelium; mesenchyme). These methods afforded the advantage of interrogating whole tissues in a three-dimensional environment and in combination with IHC without the need to section.
Vascular Changes: Bladders that had been perfused transcardially with PBS buffer containing 20 nm yellow-green fluorescent beads (THERMO FISHER®, F8787) to highlight the vasculature were fixed then cleared by removing lipids and dissolving light-absorbing chromophores within the tissue. Volumetric data were acquired using a Caliber ID RS-G4 ribbon scanning confocal microscope (NIKON® Inc, Tokyo, Japan), which can acquire large-area images (uses a high nA (1.0) long working distance (8 mm) with low magnification (20×)). This affords the advantage of interrogating whole tissues in a three-dimensional environment without the need to section. Real-time blood perfusion (1 mm3 tissue) was accomplished using a BLF22D laser Doppler flowmeter (Transonic Systems, Inc) with a surface probe (TypeS-APLPHS) applied to the serosal surface of the bladder (apex and neck) wall using Doppler light shift from moving RBCs to analyze flow by the Bonner algorithm. This method gives robust, non-invasive microvascular flow signals in the bladder wall of anesthetized rats.

cleaved caspase 3 = experiment: Western immunoblotting, cleaved caspase 3; format: in vivo, rat; details: aged rats; oral 8-AG 5 mg/kg/day, 6 weeks
Protocol: Western immunoblotting: One half of each bladder preparation was homogenized using Lysing Matrix D in a FastPrep 24 instrument (MP Biomedicals, Solon, Ohio) in HBSS (5 mM KCl, 0.3 mM KH2PO4, 138 mM NaCl, 4 mM NaHO3, 0.3 mM Na2HCO3, 0.3 mM Na2HPO4, 5.6 mM glucose and 10 mM Hepes, pH 7.4) containing complete protease inhibitor cocktail (1 tablet/10 ml, ROCHE®, Indianapolis, Ind.)) and phosphatase inhibitor cocktail (SIGMA®, 1:100). After centrifugation (13000 rpm; 15 min at 4° C.), the membrane protein fraction was prepared by suspending the membrane pellets in lysis buffer containing 0.3 M NaCl, 50 mM Tris-HCl (pH 7.6) and 0.5% Triton X-100 and the same concentration of protease inhibitors as above. The suspensions were incubated on ice and centrifuged (13000 rpm; 15 min at 4° C.). The protein concentrations of the combined supernatants were determined using the PIERCE® BCA protein assay (THERMO SCIENTIFIC®, Rockford, Ill.). After denaturation (100° C. for 5 min) in the presence of Laemmli sample buffer, lysate from each sample was separated on a 4-15% TGX Stain-Free SDS-PAGE gel (BIO-RAD® Laboratories, Hercules, Calif.). As a loading control, total protein per sample was determined using Bio-Rad® Stain Free SDS-PAGE gel technology. UV-activated protein fluorescence was imaged on a CHEMIDOC® MP (BIO-RAD®). […] The volume (intensity) of each protein species was determined and normalized to total protein using Image Lab software (BIO-RAD®).

[1] = Jackson et al., J Pharmacol Exp Ther 2016; cited from earlier work
PNPase = PNPase (Homo sapiens, UniProt P00491); details: Jackson et al., J Am Heart Assoc 2018; cited from earlier work
PNPase, sequence (P00491 whole entry): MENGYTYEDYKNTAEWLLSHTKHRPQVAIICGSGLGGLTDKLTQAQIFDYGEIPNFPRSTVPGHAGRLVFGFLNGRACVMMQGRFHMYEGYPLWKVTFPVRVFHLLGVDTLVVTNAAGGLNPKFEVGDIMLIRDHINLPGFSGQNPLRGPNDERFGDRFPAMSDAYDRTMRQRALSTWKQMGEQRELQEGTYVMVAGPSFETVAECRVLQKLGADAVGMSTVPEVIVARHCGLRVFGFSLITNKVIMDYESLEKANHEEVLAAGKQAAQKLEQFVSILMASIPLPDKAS

[2] = chronic 8-AG treatment (Examples 1-2)

SMILES: Nc1nc2[nH]c(N)nc2c(=O)[nH]1 [8-AG, 8-Aminoguanine]
- ischemic appearance of bladder tissue (bladder vasculature; [2]): no longer appeared ischemic
- tortuosity of bladder vessels (bladder vasculature; [2]): restored to a younger state; also recorded: reduced the number of tortuous vessels
- ischemic appearance of bladder tissue (bladder vasculature; oral 8-AG 5 mg/kg/day, 6 weeks): no longer appeared ischemic
- vascular tortuosity / tortuous vessels in bladder (bladder vasculature; oral 8-AG 5 mg/kg/day, 6 weeks): reduced the number of tortuous vessels; also recorded: restored to a younger state
- EUS cleaved caspase 3 (cleaved caspase 3): restored to a younger state
- cleaved caspase 3 in bladder mucosa (cleaved caspase 3): reversed or restored to levels similar to the younger state; also recorded: restored changes similar to a younger state
- cleaved caspase 3 in detrusor smooth muscle (cleaved caspase 3): levels similar to the younger state; also recorded: restored these biomarkers to that of a younger state
- diuresis [1]: induce
- glucosuria [1]: induce
- natriuresis [1]: induce
- potassium excretion [1]: reduce
- PNPase inhibition (mechanism of diuresis, natriuresis, glucosuria) (PNPase): inhibiting
